In patent US12161642B2, “Ferrochelatase inhibitors and methods of use” (INDIANA UNIVERSITY RESEARCH AND TECHNOLOGY CORPORATION, priority 2018, dated 2024):
Read-outs that look alike come from different tables or passages of the source.

What was measured:
FECH in HRECs = experiment: PPIX accumulation assay in HRECs; type: cell-based, human; conditions: after 5-ALA treatment; vs. DMSO control
Experimental: To confirm that ferrochelatase is inhibited in HRECs after treatment with compounds, the buildup of FECH's substrate PPIX was assayed fluorometrically. HRECs were plated for 80% confluency at the time of treatment in 6 cm dishes coated with attachment factor. Cells were then treated with compound in DMSO (1% DMSO final concentration) for 2 hours at 37° C. 5-Aminolevulinic acid, the first dedicated precursor in the heme synthesis pathway, was then added to the cells at 1 mM and allowed to incubate at 37° C. for another 2 hours. Cells were washed with PBS and flash frozen. Cells were lysed in 200 μL RIPA buffer and cleared by centrifugation at 14,000 g for 15 minutes at 4° C. The cleared lysates (20 μL) were added to wells of a 384 well plate in triplicate. An equal volume of 2M HC104 prepared in methanol was added to each well and PPIX was detected by immediately reading fluorescence on a Biotek Synergy H1 plate reader at 406 nm excitation and 610 nm emission. Total PPIX accumulation was determined by comparing fluorescence output with PPIX standards, prepared in DMSO and diluted in RIPA buffer and 2M HC104 (1:1 ratio) and read on the same plate. Protein in the cleared lysates was quantified with a standard Bradford assay and the amount of PPIX accumulation is expressed per mg protein.

HRECs [1] = experiment: Matrigel-based tube formation assay; type: cell-based, human; conditions: 8 hours, total tubule length vs. DMSO control
Experimental: The Matrigel-based tube formation assay was performed. Briefly, 50 μL Matrigel was allowed to solidify in a 96-well black, clear bottom plate at 37° C. for 20 minutes. HRECs were added to the solid Matrigel at 15,000 cells/well in 100 μL EGM-2 and dosed with appropriate concentrations of compound in DMSO, 1 μL/well. Tube formation was observed every 2 hours by brightfield microscopy and images were taken after 8 hours of tube formation. Six images per treatment were analyzed using the AngiogenesisAnalyzer plugin for ImageJ and HREC total tubule length for treated cells was normalized to DMSO controls. Statistical analysis was completed using GraphPad Prism, with ANOVA followed by Dunnett's post hoc tests used to compare treatments to control (DMSO).

recombinant human FECH = recombinant human FECH (Homo sapiens (Human), UniProt P22830); experiment: FECH enzymatic activity assay (Ni2+ mesoporphyrin IX formation, absorbance at 550 nm); type: biochemical
Experimental: The human FECH expression plasmid pHDTF20 was obtained in E. coli cells from the Dailey Lab (University of Georgia). The cells were grown in Circlegrow medium (MP Biomedicals, LLC #3000-122) with ampicillin for 20 hours. Cells were harvested, lysed in a Tris-MOPS buffer and purified by immobilized metal affinity chromatography using HisPur Cobalt resin (Thermo Fisher #89965).
The activity assay buffer was 100 mM Tris-HCl pH 8.0 with 0.05% octyl glucoside detergent. Assay reagents included 100 μM NiCl (Sigma #339350), 0.75 μM FECH enzyme and 100 μM mesoporphyrin (Sigma #258806) prepared in ammonium hydroxide (Santa Cruz #sc-214535).
The kinetic assay was optimized for a 384-well format. For the 384-well assay, each well contained a 50 μL reaction with 40 μL buffer, 5 μL mesoporphyrin solution, 5 μL NiCl and FECH solution. […] This time point was used for the chemical screen.
A mixture of assay buffer, NiCl and FECH enzyme (15 μL) was added to all wells on the assay plate using a MulitFlo dispenser. To start the reaction, 15 μL of a 333 μM mesoporphyrin solution in assay buffer was added to the plate, the plate spun down and the absorbance at OD=550 nm immediately read to establish a read at time 0. Plates were read for absorbance at OD=550 nm again at t=20 minutes and the activity was expressed as the change in the absorbance over the 20 minute reaction.
Compounds, reordered from ChemDiv or synthesized as described above, were made to 10 mM in DMSO and tested in the FECH enzymatic assay at final concentrations of […] 100 μM (1% final DMSO concentration). IC50 values for the compounds were determined using GraphPad Prism software.
A kinetic assay to monitor FECH enzymatic activity was adapted from a published protocol (Burden et a., Biochim Biophys Acta 1435, 191-197 (1999)).

HRECs [2] = experiment: HREC proliferation assay (alamarBlue), GI50 determination; type: cell-based, human; conditions: proliferation of HRECs
Experimental: Human retinal microvascular endothelial cells (HRECs) were cultured in EGM-2 medium (Lonza). Cells (2500/well) in EGM-2 medium were plated in 48 wells in the center of a 96-well black with clear bottom TC treated plate are allowed to attach overnight. The cells were treated with compounds such that final assay concentrations were 100 μM, 30 μM, 10 μM, 3 μM, 1 μM, 100 nM, and 10 nM with DMSO control (1% final DMSO concentration). Cells were allowed to proliferate for 44 hours prior to addition of alamarBlue. The alamarBlue reagent is a flurorometric/colorimetric redox reagent that is reduced in the presence of growing cells. The assay was completed with a read of fluorescence at excitation of 560 nm and emission of 590 nm. GI50 values were determined using GraphPad Prism software.

[3] = recombinant FECH, read-out: FECH IC50

Sequence of recombinant human FECH (P22830 55-423): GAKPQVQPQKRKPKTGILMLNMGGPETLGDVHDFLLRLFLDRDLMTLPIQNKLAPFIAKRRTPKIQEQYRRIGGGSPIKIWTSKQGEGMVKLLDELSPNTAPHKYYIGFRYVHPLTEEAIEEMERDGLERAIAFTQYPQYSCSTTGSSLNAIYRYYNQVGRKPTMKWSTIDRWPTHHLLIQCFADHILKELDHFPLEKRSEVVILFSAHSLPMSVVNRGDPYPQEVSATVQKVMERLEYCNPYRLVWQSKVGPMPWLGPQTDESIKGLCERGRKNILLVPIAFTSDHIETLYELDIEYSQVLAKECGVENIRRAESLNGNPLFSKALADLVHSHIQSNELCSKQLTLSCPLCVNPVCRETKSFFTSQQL

Compound | IC50 (recombinant human FECH; [3]) | tube formation of HRECs (HRECs [1]) | GI50 (HRECs [2]; Homo sapiens, HREC, 44 h) | also measured
CC(C)(C)c1ccc(-c2nc3[nH]c(CNc4ccc5ccccc5n4)cc(=O)n3n2)cc1 [Example 4e, 2-(4-(tert-butyl)phenyl)-5-((quinolin-2-ylamino)methyl)-[1,2,4]triazolo[1,5-a]pyrimidin-7(4H)-one] | 0.178 µM | blocked tube formation | 92.5 µM | buildup of PPIX in HRECs (FECH in HRECs): induced a buildup of PPIX
CC(C)(C)c1ccc(-c2nc3[nH]c(CNc4cccc(Cl)c4)cc(=O)n3n2)cc1 [Example 4h, 2-(4-(tert-butyl)phenyl)-5-(((3-chlorophenyl)amino)methyl)-[1,2,4]triazolo[1,5-a]pyrimidin-7(4H)-one] |  | blocked tube formation | > 100 µM | 
CCCc1cc(=O)n2nc(CNc3ccccc3C)nc2[nH]1 [Example 5a, 5-propyl-2-((o-tolylamino)methyl)-[1,2,4]triazolo[1,5-a]pyrimidin-7(4H)-one] | 92 µM | blocked tube formation | 75.5 µM | 
CCCc1cc(=O)n2nc(CNc3ccccc3Cl)nc2[nH]1 [Example 5d, 2-(((2-chlorophenyl)amino)methyl)-5-propyl-[1,2,4]triazolo[1,5-a]pyrimidin-7(4H)-one] | > 100 µM | blocked tube formation | 25.7 µM | 
CCCc1cc(=O)n2nc(CNc3ccc(C)c(Cl)c3)nc2[nH]1 [Example D433-1748] | 0.57 µM |  | > 100 µM | 
CCCc1cc(=O)n2nc(CNc3cccc(Cl)c3C)nc2[nH]1 [Example D433-1750] | 2.15 µM |  | > 100 µM | 
O=c1c2c([nH]c3nc(CNc4ccc(Cl)cc4)nn13)CCC2 [Example D433-1839] | 1.05 µM |  | 81.5 µM | 
COc1cccc(NCc2nc3[nH]c4c(c(=O)n3n2)CCC4)c1 [Example D433-1841] | 3.75 µM |  | > 100 µM | 
N-methylprotoporphyrin [NMPP, reference compound] |  |  |  | buildup of PPIX in HRECs (FECH in HRECs): induced a buildup of PPIX; FECH activity inhibition (recombinant human FECH; 10 μM): completely inhibited; IC50 (recombinant human FECH; positive control, in our assay, read-out: IC50 (FECH inhibition)): 0.45 µM

Now from value to compound, other results behind:

IC50 (recombinant human FECH; [3]) | Compound | tube formation of HRECs (HRECs [1]) | GI50 (HRECs [2]; Homo sapiens, HREC, 44 h) | also measured
0.293 µM | CCCc1cc(=O)n2nc(CNc3ccc(C)cc3)nc2[nH]1 [Example 5c, 5-propyl-2-((p-tolylamino)methyl)-[1,2,4]triazolo[1,5-a]pyrimidin-7(4H)-one] | blocked tube formation | 28.3 µM | 
> 100 µM | CCCc1cc(=O)n2nc(CNc3ccc(C(C)(C)C)cc3)nc2[nH]1 [Example 5h, 2-(((4-(tert-butyl)phenyl)amino)methyl)-5-propyl-[1,2,4]triazolo[1,5-a]pyrimidin-7(4H)-one] | blocked tube formation | 3.8 µM | 
0.0614 µM | COc1ccc(NCc2nc3[nH]c(C)c(Cc4ccc(Cl)cc4)c(=O)n3n2)cc1 [Example D433-1582] |  | > 100 µM | 
1.25 µM | CCc1ccccc1NCc1nc2[nH]c(C)c(Cc3ccc(Cl)cc3)c(=O)n2n1 [Example D433-1585] |  | 74.6 µM | 
2.99 µM | CCOC(=O)CCc1c(C)[nH]c2nc(CNc3ccc(C)c(Cl)c3)nn2c1=O [Example D433-1688] |  | > 100 µM | 
4.39 µM | CCCc1cc(=O)n2nc(CNc3cccc(C(F)(F)F)c3)nc2[nH]1 [Example D433-1725] |  | 1.17 µM | 
0.829 µM | CCCc1cc(=O)n2nc(CNc3ccc(Cl)cc3)nc2[nH]1 [Example D433-1739] |  |  | GI50 (HRECs [2]; 44 hours): 3.14 µM
2.86 µM | CCCc1cc(=O)n2nc(CNc3cccc(OC)c3)nc2[nH]1 [Example D433-1741] |  | 1.61 µM | 
1.02 µM | Cc1ccc(NCc2nc3[nH]c(C(C)C)cc(=O)n3n2)cc1Cl [Example D433-1798] |  | > 100 µM | 
1.57 µM | O=c1c2c([nH]c3nc(CNc4cccc(Cl)c4)nn13)CCC2 [Example D433-1831] |  | > 100 µM | 
0.227 µM | Cc1ccc(NCc2nc3[nH]c4c(c(=O)n3n2)CCC4)cc1Cl [Example D433-1848] |  | > 100 µM | 
